The values that follow come from US10640545B2 (THE GOVERNORS OF THE UNIVERSITY OF ALBERTA, priority 2017, dated 2020).

Where a SMILES comes first, the peptide text is derived from it. [ ]: non-standard residue; d: D form. The star is where a group is joined. Phe(4-Br) = N[C@@H](Cc1ccc(Br)cc1)C(=O)O; Palmitoyl = CCCCCCCCCCCCCCCC(=O)*; NMeL = CN[C@@H](CC(C)C)C(=O)O; Nle = CCCC[C@H](N)C(=O)O; Aib = CC(C)(N)C(=O)O

Assay [1] addresses T1, recombinant human APJ-Ga16 receptor (Homo sapiens, UniProt P35414).
T1 construct: host or cells: Chem-5-APJ cells
T1 sequence (P35414 1-380): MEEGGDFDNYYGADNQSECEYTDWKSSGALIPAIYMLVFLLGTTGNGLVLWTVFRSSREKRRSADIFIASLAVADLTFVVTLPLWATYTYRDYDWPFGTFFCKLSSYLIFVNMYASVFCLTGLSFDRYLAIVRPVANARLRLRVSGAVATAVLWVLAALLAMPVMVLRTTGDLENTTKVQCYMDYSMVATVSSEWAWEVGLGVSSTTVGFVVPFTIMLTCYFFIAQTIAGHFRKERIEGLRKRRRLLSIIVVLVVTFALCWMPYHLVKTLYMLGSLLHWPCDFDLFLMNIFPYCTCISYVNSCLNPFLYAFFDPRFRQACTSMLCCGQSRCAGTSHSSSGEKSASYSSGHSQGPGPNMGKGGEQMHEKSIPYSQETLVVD
Put plainly: Ca2+ mobilization assay (FLIPR, Chem-5-APJ cells). The format is cell-based. As to conditions: among peptides 56-59. How it is done:
To study the extent to which the newly derived peptides trigger APJ-receptor activation, a fluorescence coupled calcium release assay including a recombinant human APJ-Ga16 receptor cell line was used.
Chem-5-APJ cells (Millipore, USA) were seeded (30 000 cells/well) into Nunclon Delta Surface 96-well, clear-bottom microtitre plates (Thermo Scientific, Denmark) 24 hours prior to assay. Cells were loaded for 1 hour with FLIPR Calcium 6-QF fluorescent indicator dye (Molecular Devices, USA) in assay buffer [Hanks balanced salt solution (HBSS), 20 mM HEPES, 0.2% DMSO, 2.5 mM probenecid, pH 7.6], washed three times with assay buffer, then returned to the incubator for 10 min before assay on a fluorimetric imaging plate reader (FLIPR; Molecular Devices, Sunnyvale, Calif., USA). Maximum change in fluorescence over baseline was used to determine agonist response. Dose—response curve data were fitted to a four-parameter logistic equation using PRISM (Graph Pad, USA) from which pEC50 values were calculated. FIGS. 14A-G show the concentration response curves of apelin peptides.

For the next assay, the system named is anesthetized mice. Put plainly: Blood pressure assay in anesthetized mice. The settings on record: 1.4 μM/kg body weight injected. It is filed as in vivo. Put shortly: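 Mice were anaesthetized with 1.5% isoflurane/oxygen and kept at 36 °C. Peptide (1.4 μM/kg body weight) or saline was injected via the right jugular vein. Arterial pressure and heart rate were recorded continuously through a catheter in the aorta via the right carotid artery over 60 min and reported as SBP, DBP, MABP and HR.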

For `CCCCCCCCCCCCCCCC(=O)N[C@@H](CCCCN)C(=O)N[C@@H](Cc1ccccc1)C(=O)N[C@@H](CCCNC(=N)N)C(=O)N[C@@H](CCCNC(=N)N)C(=O)N[C@@H](CCC(N)=O)C(=O)N[C@@H](CCCNC(=N)N)C(=O)N1CCC[C@H]1C(=O)N[C@@H](CCCNC(=N)N)C(=O)N(C)[C@@H](CC(C)C)C(=O)N[C@@H](CO)C(=O)N[C@@H](Cc1c[nH]cn1)C(=O)N[C@@H](CCCCN)C(=O)NCC(=O)N1CCC[C@H]1C(=O)N[C@@H](CCCC)C(=O)NC(C)(C)C(=O)N[C@@H](Cc1ccc(Br)cc1)C(=O)O` [Peptide 58] (Palmitoyl-KFRRQRPR[NMeL]SHKGP[Nle][Aib][Phe(4-Br)]-OH; C-terminus assumed), the “Ca2+ mobilization (in words)” value in assay [1] is given as “lowest Ca^2+ mobilization”. For the same molecule, in the assay with anesthetized mice, the “effect on heart rate (HR)” value was “heart rate increasing effect is restored”.
